Columns and labels:
[1] = target: T1, rat μ (C6-MOR) opioid receptor (Rattus norvegicus, UniProt P33535); assay: Radioligand binding assay, [3H]diprenorphine displacement, MOR; details: displacement of 0.2 nM [3H]diprenorphine, C6-MOR membranes; mean ± standard error
T1 construct: expressed in transfected cells
Procedure, shortened: (§1)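 Competitive displacement of 0.2 nM [3H]diprenorphine measured at equilibrium (1 h, room temperature, 50 mM Tris-HCl pH 7.4) on membranes of C6-MOR, C6-DOR (rat) or CHO-KOR (human) cells. 10 μM naloxone defined nonspecific binding; Ki derived by fitting a logistic equation; mean±SE of ≥3 duplicate assays.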

[2] = target: T2, rat δ (C6-DOR) opioid receptor (Rattus norvegicus, UniProt P33533); assay: Radioligand binding assay, [3H]diprenorphine displacement, DOR; details: displacement of 0.2 nM [3H]diprenorphine, C6-DOR membranes; mean ± standard error
T2 construct: expressed in transfected cells
T2 sequence (P33533 whole entry): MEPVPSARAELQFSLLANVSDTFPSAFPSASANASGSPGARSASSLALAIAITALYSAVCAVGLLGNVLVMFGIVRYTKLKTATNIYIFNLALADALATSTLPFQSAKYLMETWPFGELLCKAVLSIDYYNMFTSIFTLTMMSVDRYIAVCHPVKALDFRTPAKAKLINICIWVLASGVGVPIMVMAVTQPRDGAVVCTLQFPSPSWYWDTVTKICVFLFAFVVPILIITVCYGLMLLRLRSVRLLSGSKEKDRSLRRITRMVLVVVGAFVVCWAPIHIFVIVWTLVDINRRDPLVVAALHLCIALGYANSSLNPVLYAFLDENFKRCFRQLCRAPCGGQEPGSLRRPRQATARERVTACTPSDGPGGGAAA
Procedure, shortened: as §1

[3] = target: T3, human κ (CHO-KOR) opioid receptor (Homo sapiens, UniProt P41145); assay: Radioligand binding assay, [3H]diprenorphine displacement, KOR; details: displacement of 0.2 nM [3H]diprenorphine, CHO-KOR membranes; mean ± standard error
T3 construct: expressed in transfected cells
T3 sequence (P41145 whole entry): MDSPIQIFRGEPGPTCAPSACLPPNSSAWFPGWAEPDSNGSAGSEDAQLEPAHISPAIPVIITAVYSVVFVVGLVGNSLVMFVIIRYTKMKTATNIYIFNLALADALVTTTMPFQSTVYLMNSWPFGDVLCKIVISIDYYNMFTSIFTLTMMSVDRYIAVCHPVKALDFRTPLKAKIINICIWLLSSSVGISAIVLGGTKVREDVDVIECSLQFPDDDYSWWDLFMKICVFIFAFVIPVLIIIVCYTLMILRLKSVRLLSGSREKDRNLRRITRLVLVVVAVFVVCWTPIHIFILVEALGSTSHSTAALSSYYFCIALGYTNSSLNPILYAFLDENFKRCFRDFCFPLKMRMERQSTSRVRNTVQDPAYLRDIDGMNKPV
Procedure, shortened: as §1

[4] = target: T1, rat μ (C6-MOR) opioid receptor; assay: Stimulation of [35S]GTPγS binding, MOR; assay type: biochemical; details: for EC50: [35S]GTPγS binding, C6-MOR membranes, mean ± standard error; for Emax: [35S]GTPγS maximal stimulation compared with 10 μM standard DAMGO
Procedure, shortened: (§2)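 Peptide-stimulated [35S]GTPγS (0.1 nM) binding, with 30 μM GDP, 5 mM MgCl2 and 100 mM NaCl at pH 7.4, was measured over 1 h at room temperature. Membranes came from rat MOR/DOR C6 or human KOR CHO cells. Filter-retained counts were expressed against 10 μM DAMGO, DPDPE or U69,593 respectively; maxima were fitted nonlinearly.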

[5] = target: T2, rat δ (C6-DOR) opioid receptor; assay: Stimulation of [35S]GTPγS binding, DOR; assay type: biochemical; details: for EC50 (nm) DOR / EC50: [35S]GTPγS binding, C6-DOR membranes, mean ± standard error; for % stimulation DOR / Emax: [35S]GTPγS maximal stimulation compared with 10 μM standard DPDPE
Procedure, shortened: as §2

C57BL/6 mice = assay: Antinociception, warm water tail withdrawal assay;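 for Antinociceptive activity: fully efficacious means no withdrawal up to the 20 s cutoff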; assay type: in vivo; details: mouse tail withdrawal; for Antinociceptive activity: 50° C. water bath, cutoff 20 s, ip; for Duration: duration of antinociceptive action, 50° C.
Protocol: In Vivo Pharmacology. Animals. Adult male C57BL/6 mice weighing between 20 and 30 g at 8-16 weeks old were used for the current experiments (obtained from Jackson Laboratories (Bar Harbor, Me.), Harlan (Indianapolis, Ind.), or bred in-house). Mice were group-housed and had free access to food and water at all times. Experiments were conducted in the housing room, which was maintained on a 12 h light/dark cycle (with lights on at 0700). Each mouse was used only once and experiments were conducted between 11 a.m. and 4 p.m. Studies were performed in accordance with the University of Michigan Committee on the Use and Care of Animals and the Guide for the Care and Use of Laboratory Animals (National Research Council, 2011 publication).
Antinociception. The antinociceptive effects of the compounds disclosed herein and morphine can be evaluated in the warm water tail withdrawal assay using a cumulative dosing procedure. To determine tail withdrawal latencies, each mouse was placed briefly into a plastic, cylindrical restrainer and 2-3 cm of the tail tip was placed into a water bath maintained at 50° C. The latency to withdraw the tail was recorded with a maximum cutoff time of 20 s. […] Each animal received an injection of saline (intraperitoneal, ip) and then 30 min later, the baseline withdrawal latencies were recorded and ranged between 3 and 6 s. Following baseline determinations, three increasing doses (1, 2.2, and 6.8 mg/kg) of 1(4R) were given at 30 min intervals to provide final doses of 1, 3.2, and 10 mg/kg. Thirty minutes after each injection, the tail withdrawal latency was measured as described above. To confirm that 1(4R) was acting at opioid receptors, the cumulative dose response was repeated over the doses 3.2, 10, and 32 mg/kg following a 30 min pretreatment with 1 mg/kg naltrexone (ip). To determine the time-course of antinociceptive action the tail-withdrawal test was performed at varying times following administration of morphine (10 mg/kg, ip) or 1(4R) (10 mg/kg, ip).

[6] = target: T3, human κ (CHO-KOR) opioid receptor; assay: Stimulation of [35S]GTPγS binding, KOR; assay type: biochemical; details: for EC50 (nm) KOR / EC50: [35S]GTPγS binding, CHO-KOR membranes, mean ± standard error; for % stimulation KOR / Emax: [35S]GTPγS maximal stimulation compared with 10 μM standard U-69,593
Procedure, shortened: as §2

T1 sequence (P33535 whole entry): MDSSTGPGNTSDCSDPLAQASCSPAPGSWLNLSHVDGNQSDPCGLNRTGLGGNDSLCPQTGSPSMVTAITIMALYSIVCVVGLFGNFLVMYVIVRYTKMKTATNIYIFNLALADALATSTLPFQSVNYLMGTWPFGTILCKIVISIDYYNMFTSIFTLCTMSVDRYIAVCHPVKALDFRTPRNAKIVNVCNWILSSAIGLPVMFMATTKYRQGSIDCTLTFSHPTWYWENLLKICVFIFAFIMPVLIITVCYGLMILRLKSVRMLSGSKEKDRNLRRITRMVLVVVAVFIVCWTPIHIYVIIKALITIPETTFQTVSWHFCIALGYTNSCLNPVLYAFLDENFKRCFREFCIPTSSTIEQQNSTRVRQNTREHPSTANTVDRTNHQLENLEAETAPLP

Compound | Ki [1] [nM] | Ki [2] [nM] | Ki [3] [nM] | EC50 [4] [nM] | Emax [4] [%] | EC50 (nm) DOR [5] | % stimulation DOR [5] | Antinociceptive activity (C57BL/6 mice) | EC50 [5] [nM] | Emax [5] [%] | EC50 (nm) KOR [6] | % stimulation KOR [6] | EC50 [6] [nM] | Emax [6] [%] | Duration (C57BL/6 mice) [min]
Cc1cc(O)cc(C)c1C[C@H](N)C(=O)N[C@@H]1CCNc2c(Cc3ccccc3)cc(Cc3ccccc3)cc21 [Compound 1041] | 0.73 | 0.86 | 13.2 | 7.25 | 73 | dns | dns | Inactive | – | – | – | – | – | – | –
CCCc1cc(Cc2ccccc2)cc2c1NCC[C@H]2NC(=O)[C@@H](N)Cc1c(C)cc(O)cc1C [Compound 1056] | 0.64 ± 0.08 | 5.89 ± 1.5 | 98.4 ± 18.2 | 23.3 ± 6.94 | 89.5 ± 6.27 | – | – | Inactive | 307 ± 28.6 | 35.7 ± 2.62 | dns | dns | – | – | –
Cc1cc(O)cc(C)c1C[C@H](N)C(=O)N[C@@H]1CCNc2c1cc(Cc1ccccc1)cc2C(C)(C)C [Compound 1057] | 0.91 ± 0.4 | 3.78 ± 0.66 | 64.7 ± 17.8 | 9.87 ± 3.55 | 83.2 ± 4.6 | – | – | Partially active | 238 ± 39.3 | 57.9 ± 14 | dns | dns | – | – | –
Cc1cc(O)cc(C)c1C[C@H](N)C(=O)N[C@@H]1CCNc2c(F)cc(Cc3ccccc3)cc21 [Compound 1090] | – | – | – | – | – | – | – | Inactive | – | – | – | – | – | – | –
Cc1cc(O)cc(C)c1C[C@H](N)C(=O)N[C@@H]1CCNc2c(-c3ccoc3)cc(Cc3ccccc3)cc21 [Compound 1094] | 0.34 ± 0.08 | 3.49 ± 0.55 | 27.9 ± 6.24 | 9.77 ± 6.34 | 103 ± 5 | – | – | Inactive | 74.9 ± 61.5 | 36.7 ± 5.53 | – | – | 290 | 29 | –
Cc1cc(O)cc(C)c1C[C@H](N)C(=O)N[C@@H]1CCNc2c(CN3CCCCC3)cc(Cc3ccccc3)cc21 [Compound 1097] | 0.07 ± 0.03 | 2.41 | 0.71 | 2.32 ± 0.21 | 93 ± 1.67 | – | – | Inactive | – | – | – | – | – | – | –
Cc1cc(O)cc(C)c1C[C@H](N)C(=O)N[C@@H]1CCNc2c(CCc3ccccc3)cc(Cc3ccccc3)cc21 [Compound 1098] | 0.64 ± 0.34 | 0.69 ± 0.03 | 27.5 ± 7.81 | 44.4 ± 16.6 | 78.4 ± 1.26 | dns | dns | Inactive | – | – | dns | dns | – | – | –
Cc1cc(O)cc(C)c1C[C@H](N)C(=O)N[C@@H]1CCNc2c(CN3CCOCC3)cc(Cc3ccccc3)cc21 [Compound 1099] | 0.15 ± 0.04 | 2.61 ± 0.79 | 19.4 ± 8.53 | 1.84 ± 0.41 | 96.1 ± 1.76 | – | – | Inactive | 172 ± 65.8 | 29 ± 6.78 | dns | dns | – | – | –
Cc1cc(O)cc(C)c1C[C@H](N)C(=O)N[C@@H]1CCNc2c(C)cc(Cc3ccccc3)cc21 [Compound 1100] | 2.63 | 1.09 | 18.3 | – | – | – | – | Fully efficacious | – | – | – | – | – | – | 90
CCOC(=O)c1cc(Cc2ccccc2)cc2c1NCC[C@H]2NC(=O)[C@@H](N)Cc1c(C)cc(O)cc1C [Compound 1102] | 1.01 ± 0.28 | 4.2 | 48.7 | 4.91 ± 0.28 | 70.5 ± 2.61 | dns | dns | Fully efficacious | – | – | – | – | – | – | 150
Cc1cc(O)cc(C)c1C[C@H](N)C(=O)N[C@@H]1CCNc2c(C(=O)NCc3ccccc3)cc(Cc3ccccc3)cc21 [Compound 1104] | 0.36 | 2.17 | 29.4 | 4.18 | 79 | dns | dns | Inactive | – | – | – | – | – | – | –
CCCCc1cc(Cc2ccccc2)cc2c1NCC[C@H]2NC(=O)[C@@H](N)Cc1c(C)cc(O)cc1C [Compound 1126] | 0.75 ± 0.4 | 3.55 ± 0.46 | 34.4 ± 4.7 | 17.9 ± 5.83 | 85 ± 2 | – | – | Fully efficacious | 200 ± 77 | 24.9 ± 4.43 | dns | dns | – | – | 150
CCc1cc(Cc2ccccc2)cc2c1NCC[C@H]2NC(=O)[C@@H](N)Cc1c(C)cc(O)cc1C [Compound 1127] | 0.05 | 4.6 | 44 | 37 | 75 | – | – | Fully efficacious | 23 | 48 | dns | dns | – | – | 60
Cc1cc(O)cc(C)c1C[C@H](N)C(=O)N[C@@H]1CCNc2c(Br)cc(Cc3ccccc3)cc21 [Compound 1128] | 0.2 | 2.2 | 27 | 1.2 | 73 | – | – | Inactive | 36 | 69 | – | – | 300 | 30 | –
Cc1cc(O)cc(C)c1C[C@H](N)C(=O)N[C@@H]1CCNc2c1cc(Cc1ccccc1)cc2C(F)(F)F [Compound 1129] | 0.3 | 3.7 | 21 | 1.8 | 70 | – | – | Inactive | 50 | 42 | – | – | 600 | 17 | –
Cc1cc(O)cc(C)c1C[C@H](N)C(=O)N[C@@H]1CCNc2c(C(=O)O)cc(Cc3ccccc3)cc21 [Compound 1130] | 0.6 | 2.3 | 700 | 4 | 60 | dns | dns | Inactive | – | – | dns | dns | – | – | –

From patent publication US10519114B2, “Peptidomimetics and methods of using the same” (The Regents of the University of Michigan, priority 2016, dated 2019)
